Row | SMILES | melting point [°C]
1 | COc1cc(-c2cn3ccccc3n2)cc(OC)c1OCc1ccccc1 [Example 41] | 154 to 155
2 | COc1cc(-c2cn3ccsc3n2)ccc1OCc1ccc(Br)cc1 [Example 42] | 134 to 136
3 | COc1cc(-c2cn3cc(C)sc3n2)ccc1OCc1ccc(Cl)cc1 [Example 43] | 156 to 158
4 | COc1cc(-c2cn3cc(C(=O)O)ccc3n2)ccc1OCc1ccc(C#N)cc1 [Example 44] | 242 to 243
5 | COc1cc(-c2cn3cc(C(=O)O)ccc3n2)ccc1OCc1ccc(Cl)cc1 [Example 45] | 251 to 253
6 | COc1cc(-c2cn3ccsc3n2)ccc1OCc1ccc(C#N)cc1 [Example 48] | 179 to 181
7 | COc1cc(-c2cn3ccsc3n2)ccc1OCc1ccc([N+](=O)[O-])cc1 [Example 49] | 189 to 191
8 | COc1cc(-c2cn3ccccc3n2)ccc1OCc1ccc(C(=O)O)cc1 [Example 51] | 245 to 247
9 | COc1cc(-c2cn3cc(Cl)cc(Cl)c3n2)ccc1OCc1ccccc1 [Example 52] | 163 to 165
10 | COc1cc(-c2cn3cc(C)ccc3n2)ccc1OCc1ccc(Br)cc1 [Example 56] | 155 to 157
11 | Oc1cc(-c2cn3ccccc3n2)ccc1OCc1ccccc1 [Example 59] | 169 to 171
12 | CCOc1cc(-c2cn3ccccc3n2)ccc1OCc1ccccc1 [Example 60] | 157 to 158
13 | COc1cc(-c2cn3cc(C)cc(Br)c3n2)ccc1OCc1ccccc1 [Example 63] | 136 to 137
14 | COc1cc(-c2cn3cc(C)cc(Br)c3n2)ccc1OCc1ccc(C#N)cc1 [Example 65] | 175 to 176
15 | COc1cc(-c2cn3cc(Br)ccc3n2)ccc1OCc1ccccc1 [Example 66] | 175 to 176
16 | COc1cc(-c2cn3cc(Br)c(C)c(C)c3n2)ccc1OCc1ccc(Cl)cc1 [Example 70] | 166 to 167
17 | COc1cc(-c2cn3ccccc3n2)ccc1OCC1CC1 [Example 71] | 121 to 123
18 | c1ccc(Oc2ccc(-c3cn4ccccc4n3)cc2)cc1 [Example 72] | 164 to 165
19 | COc1cc(-c2cn3cccc(C)c3n2)ccc1OCc1ccc(Cl)cc1 [Example 73] | 132 to 133

Row | SMILES | melting point [°C]
20 | COc1cc(-c2cn3cccc(C)c3n2)ccc1OCc1ccc(C#N)cc1 [Example 74] | 144 to 146
21 | COc1cc(-c2nc3ccccc3[nH]2)ccc1OCc1ccc(Cl)cc1 [Example 77] | 204 to 206
22 | COc1cc(-c2cn3cccc(C)c3n2)ccc1OCc1ccc(Br)cc1F [Example 82] | 122 to 124
23 | COc1cc(-c2cn3cc(C)ccc3n2)ccc1OCc1ccc(Br)cc1F [Example 83] | 147 to 148
24 | COc1cc(-c2cn3ccsc3n2)ccc1OCc1ccc(Br)cc1F [Example 84] | 109 to 111
25 | COc1cc(-c2cn3cccc(OC)c3n2)ccc1OCc1ccccc1 [Example 88] | 189 to 191
26 | COc1cc(-c2cn3ccccc3n2)ccc1OCc1ccc(Cl)cc1Cl [Example 92] | 138 to 139
27 | COc1cc(-c2cn3cc(Br)ccc3n2)ccc1OCc1ccc(Cl)cc1 [Example 96] | 178 to 180
28 | COc1cc(-c2cn3cc(Br)cc(C)c3n2)ccc1OCc1ccccc1 [Example 98] | 164 to 165
29 | COc1cc(-c2cn3cc(Br)cc(C)c3n2)ccc1OCc1ccc(C#N)cc1 [Example 99] | 177 to 178
30 | COc1cc(-c2cn3cc(Br)c(C)c(C)c3n2)ccc1OCc1ccccc1 [Example 100] | 158 to 160
31 | COc1cc(-c2cn3ccccc3n2)ccc1OCc1c(F)cccc1F [Example 104] | 136 to 137
32 | COc1cc(-c2cnc3ccccn23)ccc1OCc1ccc(C#N)cc1 [Example 108] | 148 to 149
33 | COc1cc(-c2nc3ccccn3c2Cl)ccc1Oc1ccccc1 [Example 115] | 108 to 109
34 | COc1cc(-c2cccc3nccn23)ccc1OCc1ccccc1 [Example 116] | 164 to 166
35 | COc1cc(-c2cccc3nccn23)ccc1OCc1ccc(C#N)cc1 [Example 120] | 155 to 157
36 | COc1cc(-c2cnc3ccccn23)ccc1OCc1ccc(F)cc1 [Example 133] | 118 to 119
37 | COc1cc(-c2cccc3nccn23)ccc1O [Example 137] | 177 to 178

The remaining lines, values ahead:

Row | melting point [°C] | SMILES
38 | 182 to 183 | COC(=O)c1ccc2nc(-c3ccc(OCc4ccc(Cl)cc4)c(OC)c3)cn2c1 [Example 46]
39 | 179 to 181 | COC(=O)c1cc(-c2cn3ccccc3n2)ccc1OCc1ccccc1 [Example 47]
40 | 125 to 126 | COC(=O)c1ccc(COc2ccc(-c3cn4ccccc4n3)cc2OC)cc1 [Example 50]
41 | 155 to 156 | COc1cc(-c2cn3cc(C(F)(F)F)cc(Cl)c3n2)ccc1OCc1ccccc1 [Example 53]
42 | 187 to 189 | COc1cc(-c2cn3cccc(O)c3n2)ccc1OCc1ccccc1 [Example 54]
43 | 140 to 141 | COc1cc(-c2cn3cccc(OCc4ccccc4)c3n2)ccc1OCc1ccccc1 [Example 55]
44 | 168 to 169 | COc1cc(-c2cn3cc(C)ccc3n2)ccc1OCc1ccc(C#N)cc1 [Example 57]
45 | 126 to 127 | CCCOc1cc(-c2cn3ccccc3n2)ccc1OCc1ccccc1 [Example 61]
46 | 122 to 124 | c1ccc(COc2ccc(-c3cn4ccccc4n3)cc2OCc2ccccc2)cc1 [Example 62]
47 | 136 to 138 | COc1cc(-c2cn3cc(C)cc(Br)c3n2)ccc1OCc1ccc(Cl)cc1 [Example 64]
48 | 206 to 208 | Oc1cc(-c2cn3ccccc3n2)ccc1OCc1ccc(Cl)cc1 [Example 67]
49 | 136 to 137 | CCOc1cc(-c2cn3ccccc3n2)ccc1OCc1ccc(Cl)cc1 [Example 68]
50 | 155 to 156 | COc1cc(-c2cn3cc(Br)cc(C)c3n2)ccc1OCc1ccc(Cl)cc1 [Example 69]
51 | 164 to 166 | COc1cc(-c2cn3cccc(OCc4ccccc4)c3n2)ccc1OCc1ccc(Cl)cc1 [Example 75]
52 | 219 to 221 | COc1cc(-c2nc3ccccc3[nH]2)ccc1OCc1ccccc1 [Example 76, 2-(4-benzyloxy-3-methoxyphenyl)benzimidazole]
53 | 108 to 109 | COc1cc(-c2nc3ccccc3s2)ccc1OCc1ccccc1 [Example 78, 2-(4-benzyloxy-3-methoxyphenyl)benzothiazole]
54 | 190 to 192 | COc1cc(-c2c[nH]c(-c3ccccc3)n2)ccc1OCc1ccccc1 [Example 79]
55 | 162 to 163 | COc1cc(-c2cn3cc(Cl)cc(Cl)c3n2)ccc1OCc1ccc(Cl)cc1 [Example 80]
56 | 187 to 189 | COc1cc(-c2cn3cc(Cl)cc(Cl)c3n2)ccc1OCc1ccc(C#N)cc1 [Example 81]
57 | 169 to 170 | COc1cc(-c2cn3cccc(OCc4ccccc4)c3n2)ccc1OCc1ccc(C#N)cc1 [Example 86]
58 | 108 to 109 | COc1cc(-c2cn3cccc(OCc4ccccc4)c3n2)ccc1OCc1ccc(Br)cc1F [Example 87]
59 | 132 to 134 | COc1cc(-c2cn3cccc(OC)c3n2)ccc1OCc1ccc(Cl)cc1 [Example 89]
60 | 220 to 222 | COc1cc(-c2cn3cccc(O)c3n2)ccc1OCc1ccc(Cl)cc1 [Example 90]
61 | 119 to 120 | COc1cc(-c2cn3ccccc3n2)ccc1OCc1ccc(Cl)cc1F [Example 91]
62 | 137 to 138 | COc1cc(-c2cn3ccccc3n2)ccc1OCc1ccc(F)cc1F [Example 93]
63 | 115 to 117 | COc1cc(-c2cn3ccccc3n2)ccc1OCc1cc(F)ccc1F [Example 94]
64 | 165 to 166 | COc1cc(-c2cn3cc(Br)ccc3n2)ccc1OCc1ccc(C#N)cc1 [Example 97]
65 | 180 to 181 | COc1cc(-c2cn3cc(Br)c(C)c(C)c3n2)ccc1OCc1ccc(C#N)cc1 [Example 101]
66 | 133 to 135 | COc1cc(-c2cnc3ccccn23)ccc1OCc1ccc(C(F)(F)F)cc1 [Example 122]

Reference: patent US8895599B2, “Lipoprotein lipase-activating compositions comprising benzene derivates” (Otsuka Pharmaceutical Factory, Inc., priority 2008, dated 2014)
